Measured values reported in paper PMC7074166, “Screening for Small Molecule Modulators of Trypanosoma brucei Hsp70 Chaperone Activity Based upon Alcyonarian Coral-Derived Natural Products” (Marine Drugs, 2020).
Like-named read-outs stand apart in the source and are kept apart here.

System: bloodstream form T. b. brucei parasites
Assay: Resazurin-based anti-trypanosomal assay on bloodstream form T. b. brucei parasites
Assay type: cell-based, Trypanosoma brucei brucei
Experimental: Bloodstream form T. b. brucei Lister 927 variant 221 strain parasites were cultured in filter sterilized complete Iscoves Modified Dulbeccos Media (IMDM) based HM1-9 medium (IMDM base powder, […] sodium bicarbonate, 1 mM hypoxanthine, 1 mM sodium pyruvate, 0.16 mM thymidine, 0.05 mM bathocuprone sulphate acid, 10% (v/v) heat inactivated foetal bovine serum, 1.5 mM L-cysteine, 0.2 mM β-mercaptoethanol, pH 7.5) in a humidified chamber at 37 °C with an atmosphere of 5% CO2. Parasite growth was monitored using a Neubauer haemocytometer to count the cell number, after which cells were diluted, according to their density, in the described pre-warmed media.
All compounds of interest were resuspended to stocks of 30 mM in DMSO and stored at −80 °C prior to use in in vitro experiments. For assessment of anti-trypanosomal activity, compounds were added to in vitro cultures of bloodstream form T. b. brucei parasites (1 × 10^5 cells/mL) in 96-well plates at a fixed concentration of 20 μM. After an incubation period of 48 h, the number of parasites surviving drug exposure were determined using a resazurin-based cytotoxicity assay. Resazurin is an oxidation–reduction sensitive dye that is reduced by living cells to resorufin. Resorufin is a fluorophore (Excitation560/Emission590) and thus was quantified in a multi-well fluorescence plate reader. Results are expressed as % parasite viability—the resorufin fluorescence in small molecule-treated wells relative to untreated controls. Assessment of each small molecule was conducted in duplicate, with error bars representing standard deviation (SD). […] The compounds were added to in vitro cultures of bloodstream form T. b. brucei parasites (1 × 10^5 cells/mL) in 96-well plates in a 3-fold dilution series with 100 μM as the highest concentration. After an incubation period of 48 h, the number of parasites surviving drug exposure were determined as previously mentioned. The % parasite viability was determined as previously mentioned. The IC50 (the concentration of compound required to decrease cell viability of T. b. brucei parasites by 50% compared to those grown in the absence of the compound) values for each of the compounds were determined from a dose–response curve by non-linear regression generated using GraphPad Prism® (v. 7.0; San Diego, CA, USA) software. For comparative purposes, pentamidine at a fixed concentration of 1 μM was employed as a drug standard.

[1] = Trypanosoma brucei, Table 1, T. b. brucei parasites cultured in vitro, 48 h, dose-response, read-out: IC50/μM
[2] = Trypanosoma brucei, Table S1, 48 select compounds, T. b. brucei, 48 h, read-out: IC50/

Compound | IC50 (Table 1, T. b. brucei parasites cultured in vitro, 48 h, dose-response, read-out: IC50/μM) [µM] | IC50 (Table S1, 48 select compounds, T. b. brucei, 48 h, read-out: IC50/) [µM] | IC50 [1] [µM] | IC50 [2] [µM] | IC50 (Trypanosoma brucei, T. b. brucei parasites, stated as bound, read-out: IC50 values) [µM]
6-chloro-7-((2E,6E)-3,7,11-trimethyldodeca-2,6,10-trien-1-yl)-9H-purine [Compound 18] | 9.3 | 9.28 |  |  | 
CC(C)=CCC/C(C)=C/CCC(C)=CCn1cnc(N)c2ncnc1-2 [Compound 6, 3-((6E)-3,7,11-Trimethyldodeca-2,6,10-trien-1-yl)-3H-purin-6-amine] |  |  | 12.7 | 12.7 | 
CC(C)=CCC/C(C)=C/CCC(C)=CCn1cnc2c(N)ncnc21 [Compound 7, 9-((6E)-3,7,11-trimethyldodeca-2,6,10-trien-1-yl)-9H-purin-6-amine] |  |  | 47.7 | 47.7 | 
CC(C)=CCC/C(C)=C/CC/C(C)=C/CC/C(C)=C/Cn1cnc2c(N)ncnc21 [Compound 8, 9-((2E,6E,10E)-3,7,11,15-Tetramethylhexadeca-2,6,10,14-tetraen-1-yl)-9H-purin-6-amine] |  |  | 13.4 | 13.4 | 
CC(C)=CCC/C(C)=C/Cn1cnc2c(N(C)C)ncnc21 [Compound 9, (E)-9-(3,7-Dimethylocta-2,6-dien-1-yl)-N,N-dimethyl-9H-purin-6-amine] |  |  | 28.4 | 28.4 | 
CC(C)=CCC/C(C)=C/CCC(C)=CCn1cnc2c(N(C)C)ncnc21 [Compound 11, N,N-Dimethyl-9-((6E)-3,7,11-trimethyldodeca-2,6,10-trien-1-yl)-9H-purin-6-amine] |  |  | 9.5 | 9.48 | 
CC(C)=CCC/C(C)=C/CCC(C)=CCn1cnc(N(C)C)c2ncnc1-2 [Compound 12, N,N-dimethyl-3-((6E)-3,7,11-trimethyldodeca-2,6,10-trien-1-yl)-3H-purin-6-amine] |  |  | 14 |  | 
CC(C)=CCC/C(C)=C/CC/C(C)=C/CC/C(C)=C\Cn1cnc2c(N(C)C)ncnc21 [Compound 13, N,N-Dimethyl-9-((2Z,6E,10E)-3,7,11,15-tetramethylhexadeca-2,6,10,14-tetraen-1-yl)-9H-purin-6-amine] |  |  | 8.7 | 8.69 | 
CC(C)=CCC/C(C)=C/CC/C(C)=C/CC/C(C)=C/Cn1cnc2c(N(C)C)ncnc21 [Compound 14, N,N-dimethyl-9-((2E,6E,10E)-3,7,11,15-tetramethylhexadeca-2,6,10,14-tetraen-1-yl)-9H-purin-6-amine] |  |  | 9.2 | 9.22 | 
CC(C)=CCC/C(C)=C/Cn1cnc2c(Cl)ncnc21 [Compound 15, (E)-6-Chloro-9-(3,7-dimethylocta-2,6-dien-1-yl)-9H-purine] |  |  | 12.2 | 12.2 | 
CC(C)=CCC/C(C)=C/Cn1cnc2ncnc(Cl)c21 [Compound 16, (E)-6-chloro-7-(3,7-dimethylocta-2,6-dien-1-yl)-7H-purine] |  |  | 11 | 11 | 
CC(C)=CCC/C(C)=C/CCC(C)=CCn1cnc2c(Cl)ncnc21 [Compound 17, 6-Chloro-9-((6E)-3,7,11-trimethyldodeca-2,6,10-trien-1-yl)-9H-purine] |  |  | 12.9 | 12.9 | 
CC(C)=CCC/C(C)=C/CC/C(C)=C/CC/C(C)=C/Cn1cnc2c(Cl)ncnc21 [Compound 19, 6-Chloro-9-((2E,6E,10E)-3,7,11,15-tetramethylhexadeca-2,6,10,14-tetraen-1-yl)-9H-purine] |  |  | 6.8 | 6.79 | 
CC(C)=CCC/C(C)=C/CC/C(C)=C/CC/C(C)=C/Cn1cnc2ncnc(Cl)c21 [Compound 20, 6-chloro-7-((2E,6E,10E)-3,7,11,15-tetramethylhexadeca-2,6,10,14-tetraen-1-yl)-7H-purine] |  |  | 11 | 11 | 
CC(C)=CCC/C(C)=C/CC/C(C)=C/CC/C(C)=C\Cn1cnc2ncnc(Cl)c21 [Compound 21, 6-chloro-7-((2Z,6E,10E)-3,7,11,15-tetramethylhexadeca-2,6,10,14-tetraen-1-yl)-7H-purine] |  |  | 19.1 | 19.1 | 
CC(C)=CCC/C(C)=C/Cn1cnc2c1c(=O)[nH]c(=O)n2C [Compound 29, (E)-7-(3,7-Dimethylocta-2,6-dien-1-yl)-3-methyl-3,7-dihydro-1H-purine-2,6-dione] |  |  | 18.9 | 18.9 | 
CC(C)=CCC/C(C)=C/CC/C(C)=C\Cn1cnc2c1c(=O)[nH]c(=O)n2C [Compound 30, 3-Methyl-7-((2Z,6E)-3,7,11-trimethyldodeca-2,6,10-trien-1-yl)-3,7-dihydro-1H-purine-2,6-dione] |  |  | 4.6 | 4.62 | 
CC(C)=CCC/C(C)=C/CC/C(C)=C/CC/C(C)=C\Cn1cnc2c1c(=O)[nH]c(=O)n2C [Compound 32, 3-Methyl-7-((2Z,6E,10E)-3,7,11,15-tetramethylhexadeca-2,6,10,14-tetraen-1-yl)-3,7-dihydro-1H-purine-2,6-dione] |  |  | 5.9 |  | 
CC(C)=CCC/C(C)=C/CC/C(C)=C/CC/C(C)=C/Cn1cnc2c1c(=O)[nH]c(=O)n2C [Compound 33, 3-methyl-7-((2E,6E,10E)-3,7,11,15-tetramethylhexadeca-2,6,10,14-tetraen-1-yl)-3,7-dihydro-1H-purine-2,6-dione] |  |  | 10.2 | 10.2 | 
CC(C)=CCC/C(C)=C/CC/C(C)=C/CC/C(C)=C\Cn1cnc2c1c(=O)n(C)c(=O)n2C [Compound 36, 1,3-Dimethyl-7-((2Z,6E,10E)-3,7,11,15-tetramethylhexadeca-2,6,10,14-tetraen-1-yl)-3,7-dihydro-1H-purine-2,6-dione] |  |  | 5.2 | 5.17 | 
CC(C)=CCC/C(C)=C/CC/C(C)=C/CC/C(C)=C/Cn1cnc2c1c(=O)n(C)c(=O)n2C [Compound 37, 1,3-dimethyl-7-((2E,6E,10E)-3,7,11,15-tetramethylhexadeca-2,6,10,14-tetraen-1-yl)-3,7-dihydro-1H-purine-2,6-dione] |  |  | 21.6 |  | 
CC(C)=CCC/C(C)=C/CC12NC(=O)N=C1N(C)C(=O)N(C)C2=O (centres unmarked) [Compound 42, (E)-5-(3,7-Dimethylocta-2,6-dien-1-yl)-1,3-dimethyl-5,7-dihydro-1H-purine-2,6,8(3H)-trione] |  |  | 10.9 | 10.9 | 
CC(C)=CCC/C(C)=C/CCC(C)=CCn1c(=O)[nH]c2c(=O)n(C)c(=O)n(C)c21 [Compound 44, 1,3-dimethyl-9-((6E)-3,7,11-trimethyldodeca-2,6,10-trien-1-yl)-7,9-dihydro-1H-purine-2,6,8(3H)-trione] |  |  | 16.6 | 16.6 | 
CC(C)=CCC/C(C)=C/CCC(C)=CCn1cc2c(=O)ncn(CC=C(C)CC/C=C(\C)CCC=C(C)C)c2n1 [Compound 48, 2,7-bis((6E)-3,7,11-trimethyldodeca-2,6,10-trien-1-yl)-2,7-dihydro-4H-pyrazolo[3,4-d]pyrimidin-4-one] |  |  | 5.5 | 5.47 | < 7
CC(C)=CCC/C(C)=C/CC/C(C)=C/Cn1cnc2nncc-2c1O [Compound 49, 5-((2E,6E)-3,7,11-trimethyldodeca-2,6,10-trien-1-yl)-5H-pyrazolo[3,4-d]pyrimidin-4-ol] |  |  | 16.7 | 16.7 | 
CC(C)=CCC/C(C)=C/CC/C(C)=C/CC/C(C)=C/Cn1cnc2c(cnn2C/C=C(\C)CC/C=C(\C)CC/C=C(\C)CCC=C(C)C)c1=O [Compound 50, 1,5-Bis((2E,6E,10E)-3,7,11,15-tetramethylhexadeca-2,6,10,14-tetraen-1-yl)-1,5-dihydro-4H-pyrazolo[3,4-d]pyrimidin-4-one] |  |  | 2.1 | 2.07 | 
